Experimental data from publication PMC6097718 (Journal of medicinal chemistry, 2018).

Key:
IGROV1 knockdown cells = experiment: Growth inhibition in IGROV1 FRα knockdown cells; type: cell-based, human; conditions: up to 1000 nM drug
[1] = tested on: R1–11-PCFT4 HeLa cells expressing PCFT; experiment: Cell proliferation assay, PCFT-expressing HeLa subline R1–11-PCFT4
[2] = tested on: R1–11-FR2 HeLa cells expressing FRα; experiment: Cell proliferation assay, FRα-expressing HeLa subline R1–11-FR2
[3] = tested on: IGROV1 human EOC xenografts; experiment: In vivo efficacy trial with IGROV1 EOC xenografts in SCID mice
IGROV1 EOC cells = conditions: colony-forming assay; cited from earlier work

Nc1nc2[nH]c(CCCCc3csc(C(=O)N[C@@H](CCC(=O)O)C(=O)O)c3)cc2c(=O)[nH]1 [Compound 5]
growth inhibition upon FRα knockdown (IGROV1 knockdown cells): complete loss of growth inhibition

Nc1nc2[nH]c(CCCCc3ccc(C(=O)N[C@@H](CCC(=O)O)C(=O)O)c(F)c3)cc2c(=O)[nH]1 [Compound 8, (4-(4-(2-Amino-4-oxo-4,7-dihydro-3H-pyrrolo[2,3-d]pyrimidin-6-yl)butyl)-2-fluorobenzoyl)-L-glutamic Acid]
growth inhibition upon FRα knockdown (IGROV1 knockdown cells): complete loss of growth inhibition

Nc1nc2[nH]c(CCCCc3ccc(C(=O)N[C@@H](CCC(=O)O)C(=O)O)cc3)cc2c(=O)[nH]1 [Compound 2]
growth inhibition upon FRα knockdown (IGROV1 knockdown cells): complete loss of growth inhibition

Nc1nc2[nH]c(CCCCc3cnc(C(=O)N[C@@H](CCC(=O)O)C(=O)O)c(F)c3)cc2c(=O)[nH]1 [Compound 10, (5-(4-(2-Amino-4-oxo-4,7-dihydro-3H-pyrrolo[2,3-d]pyrimidin-6-yl)butyl)-3-fluoropicolinoyl)-L-glutamic Acid]
growth inhibition upon FRα knockdown (IGROV1 knockdown cells): complete loss of growth inhibition

Nc1nc2[nH]c(CCCc3csc(C(=O)N[C@@H](CCC(=O)O)C(=O)O)c3F)cc2c(=O)[nH]1 [Compound 12, (4-(3-(2-Amino-4-oxo-4,7-dihydro-3H-pyrrolo[2,3-d]pyrimidin-6-yl)propyl)-3-fluorothiophene-2-carbonyl)-L-glutamic Acid]
selectivity for PCFT versus RFC (IC50 R1–11-RFC2/IC50 R1–11-PCFT) ([1]; HeLa sublines): ~ 3
fold reduced IC50 of fluorinated versus nonfluorinated counterpart ([2]; R1–11-FR2 HeLa cells): 2–3 fold

Nc1nc2[nH]c(CCCc3ccc(C(=O)N[C@@H](CCC(=O)O)C(=O)O)c(F)c3)cc2c(=O)[nH]1 [Compound 9, (4-(3-(2-Amino-4-oxo-4,7-dihydro-3H-pyrrolo[2,3-d]pyrimidin-6-yl)propyl)-2-fluorobenzoyl)-L-glutamic Acid]
fold IC50 below that for compound 1 ([1]; R1–11-PCFT cells): 10 fold
fold IC50 below that for compound 1 ([2]; R1–11-FR2 cells): 6 fold

Nc1nc2[nH]c(CCCc3ccc(C(=O)N[C@@H](CCC(=O)O)C(=O)O)s3)cc2c(=O)[nH]1 [Compound 1]
tumor burden range ([3]; day 60, folate-deficient diet, iv, 11 Q4dX4 95 (mg/kg)/inj, 1 Q4dX3 32 (mg/kg)/inj): 0 to 196 mg
acute or long-term toxicities ([3]; equitoxic dose levels, SCID mice): no acute or long-term toxicities other than completely reversible loss of weight
antitumor activity on standard (high folate) diet ([3]; standard folate-replete diet): ablated
weight loss or adverse symptoms on standard (high folate) diet ([3]; standard folate-replete diet): No weight losses or other adverse symptoms were observed
cell killing (IGROV1 EOC cells): greater than 99%
